Results as given in the supplement of paper PMC9701192.
Counter-ions that a name gives are not always drawn. ± gives the uncertainty stated by the source.

Experiments:
Assay in all cases: mass response relative to vehicle control (EMD distance of treated vs reference mass distribution minus control baseline) (% of mean reference cell mass); higher = larger drug-induced change in single-cell mass distribution (stronger response)
HT-29 = system: HT-29
Protocol: (§1)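 Cancer cell lines were treated in vitro with drugs at the listed doses (about 24 h; 0.25% DMSO vehicle). Single-cell buoyant mass was measured on suspended microchannel resonator instruments with CNN image curation, 2500 cells per condition. Mass response is the Earth Mover's Distance to vehicle-treated reference cells as % of mean reference mass.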

PA-TU-8902 = system: PA-TU-8902
Protocol: as §1

MDA-MB-361 = system: MDA-MB-361
Protocol: as §1

A549 = system: A549
Protocol: as §1

H929 = system: H929
Protocol: as §1

KMS-12-PE = system: KMS-12-PE
Protocol: as §1

H2228 = system: H2228
Protocol: as §1

H1666 = system: H1666
Protocol: as §1

MV-4-11 = system: MV-4-11
Protocol: as §1

## CNC(=O)c1ccc(-c2cnc3ncc(Cc4ccc5ncccc5c4)n3n2)cc1F [Capmatinib]
HT-29; 0.01 µM
  mass response: 1.15 ± 0.93
HT-29; 0.1 µM
  mass response: 1.02 ± 2.5
HT-29; 1 µM
  mass response: 3.42 ± 3
HT-29; 10 µM
  mass response: 12.2 ± 4.3

## CO[C@H]1C[C@@H]2CC[C@@H](C)[C@@](O)(O2)C(=O)C(=O)N2CCCC[C@H]2C(=O)O[C@H]([C@H](C)C[C@@H]2CC[C@@H](OCCO)[C@H](OC)C2)CC(=O)[C@H](C)/C=C(\C)[C@@H](O)[C@@H](OC)C(=O)[C@H](C)C[C@H](C)/C=C/C=C/C=C/1C [Everolimus]
PA-TU-8902; 0.5 µM
  mass response: 8.53 ± 1.9
PA-TU-8902; 5 µM
  mass response: 9.89 ± 5.3
PA-TU-8902; 20 µM
  mass response: 8.18 ± 4
PA-TU-8902; 50 µM
  mass response: 16.6 ± 7

## CCCS(=O)(=O)Nc1ccc(F)c(C(=O)c2c[nH]c3ncc(-c4ccc(Cl)cc4)cc23)c1F [Vemurafenib]
HT-29; 0.01 µM
  mass response: -0.111 ± 1.9
HT-29; 0.1 µM
  mass response: 2.67 ± 0.19
HT-29; 1 µM
  mass response: 16.5 ± 2.6
HT-29; 10 µM
  mass response: 24.3 ± 2.1

## Cc1nc(NC(=O)N2CCC[C@H]2C(N)=O)sc1-c1ccnc(C(C)(C)C(F)(F)F)c1 [Alpelisib]
MDA-MB-361; 0.05 µM
  mass response: 7.91 ± 1.6
MDA-MB-361; 0.5 µM
  mass response: 16.4 ± 0.24
MDA-MB-361; 5 µM
  mass response: 39.9 ± 5.9
MDA-MB-361; 50 µM
  mass response: 62.6 ± 1.8

## CCc1cc2c(cc1N1CCC(N3CCOCC3)CC1)C(C)(C)c1[nH]c3cc(C#N)ccc3c1C2=O [Alectinib]
A549; 0.1 µM
  mass response: 3.04
A549; 0.5 µM
  mass response: 0.678
A549; 1 µM
  mass response: 3.27
A549; 10 µM
  mass response: 24.8

## CCC1=C[C@@H]2CN(C1)Cc1c([nH]c3ccccc13)[C@@](C(=O)OC)(c1cc3c(cc1OC)N(C)[C@H]1[C@@](O)(C(=O)OC)[C@H](OC(C)=O)[C@]4(CC)C=CCN5CC[C@]31[C@@H]54)C2 [Vinorelbine Tartrate]
MDA-MB-361; 0.002 µM
  mass response: 0.302 ± 2.8
MDA-MB-361; 0.02 µM
  mass response: 13 ± 0.57
MDA-MB-361; 0.2 µM
  mass response: 14.6 ± 1.1
MDA-MB-361; 2 µM
  mass response: 13.1 ± 1.9

## CN(C)C(=O)c1cc2cnc(Nc3ccc(N4CCNCC4)cn3)nc2n1C1CCCC1 [Ribociclib]
H929; 0.1 µM
  mass response: 2.31 ± 0.72
H929; 1 µM
  mass response: 0.00401 ± 0.89
H929; 10 µM
  mass response: 1.33 ± 1.2
H929; 50 µM
  mass response: 14.2 ± 3.9

## CCN1CCN(Cc2ccc(Nc3ncc(F)c(-c4cc(F)c5nc(C)n(C(C)C)c5c4)n3)nc2)CC1 [Abemaciclib]
H929; 0.05 µM
  mass response: 13.7 ± 3.8
H929; 0.5 µM
  mass response: 10.7 ± 3.7
H929; 5 µM
  mass response: 22.1 ± 2.2
H929; 20 µM
  mass response: 29.6 ± 1.8

## CC1(C)CCC(CN2CCN(c3ccc(C(=O)NS(=O)(=O)c4ccc(NCC5CCOCC5)c([N+](=O)[O-])c4)c(Oc4cnc5[nH]ccc5c4)c3)CC2)=C(c2ccc(Cl)cc2)C1 [Venetoclax]
KMS-12-PE; 0.005 µM
  mass response: 0.784 ± 4.6
KMS-12-PE; 0.05 µM
  mass response: 22.2 ± 0.87
KMS-12-PE; 0.5 µM
  mass response: 35.5 ± 0.37
KMS-12-PE; 5 µM
  mass response: 39.9 ± 4.1

## Nc1nc2[nH]cc(CCc3ccc(C(=O)N[C@@H](CCC(=O)O)C(=O)O)cc3)c2c(=O)[nH]1 [Pemetrexed]
MDA-MB-361; 0.5 µM
  mass response: 14.4 ± 3.6
MDA-MB-361; 1 µM
  mass response: 15.2 ± 2.1
MDA-MB-361; 5 µM
  mass response: 19 ± 2.9
MDA-MB-361; 50 µM
  mass response: 21.8 ± 2.8

## O=C(O)C(=O)O.[NH-][C@@H]1CCCC[C@H]1[NH-].[Pt+2] [Oxaliplatin]
PA-TU-8902; 0.5 µM
  mass response: 5.04 ± 2.9
PA-TU-8902; 5 µM
  mass response: 1.26 ± 5
PA-TU-8902; 25 µM
  mass response: 27.3 ± 9.2
PA-TU-8902; 50 µM
  mass response: 45.7 ± 3.4

## O=C(c1cc(Cc2n[nH]c(=O)c3ccccc23)ccc1F)N1CCN(C(=O)C2CC2)CC1 [Olaparib]
MDA-MB-361; 0.1 µM
  mass response: 1.31 ± 3.8
MDA-MB-361; 1 µM
  mass response: 1.01 ± 3.2
MDA-MB-361; 10 µM
  mass response: 17.9 ± 9.6
MDA-MB-361; 0.0001 M
  mass response: 25 ± 4

## CC(C)C[C@H](NC(=O)[C@H](Cc1ccccc1)NC(=O)c1cnccn1)B(O)O [Bortezomib]
H929; 0.001 µM
  mass response: -0.979 ± 1.1
H929; 0.005 µM
  mass response: 24.1 ± 2.9
H929; 0.025 µM
  mass response: 34.2 ± 4.2
H929; 0.05 µM
  mass response: 33.7 ± 4.1

## Cc1cc(Nc2ncc(Cl)c(Nc3ccccc3S(=O)(=O)C(C)C)n2)c(OC(C)C)cc1C1CCNCC1 [Ceritinib]
H2228; 0.01 µM
  mass response: 2.19 ± 0.97
H2228; 0.1 µM
  mass response: 25.7 ± 7.5
H2228; 1 µM
  mass response: 27.4 ± 6.2
H2228; 10 µM
  mass response: 61 ± 1

## CC(C)(C)c1nc(-c2cccc(NS(=O)(=O)c3c(F)cccc3F)c2F)c(-c2ccnc(N)n2)s1 [Dabrafenib]
HT-29; 0.01 µM
  mass response: 10.7 ± 9.3
HT-29; 0.1 µM
  mass response: 19.1 ± 5.2
HT-29; 1 µM
  mass response: 24.3 ± 3.3
HT-29; 10 µM
  mass response: 16.9 ± 6.3

## COC(=O)N[C@@H](C)CNc1nccc(-c2cn(C(C)C)nc2-c2cc(Cl)cc(NS(C)(=O)=O)c2F)n1 [Encorafenib]
H1666; 0.01 µM
  mass response: 1.22 ± 0.73
H1666; 0.1 µM
  mass response: -0.00481 ± 0.44
H1666; 1 µM
  mass response: 11.9 ± 4.1
H1666; 10 µM
  mass response: 20.6 ± 3.6

## O=c1[nH]cc(F)c(=O)[nH]1 [Fluorouracil]
PA-TU-8902; 25 µM
  mass response: -2.58 ± 0.15
PA-TU-8902; 50 µM
  mass response: 1.92 ± 7
PA-TU-8902; 0.0001 M
  mass response: 8.61 ± 5.8
PA-TU-8902; 0.00025 M
  mass response: 30.2 ± 2.5

## N.N.[Cl][Pt][Cl] [Cisplatin]
MDA-MB-361; 10 µM
  mass response: 3.9 ± 9.3
MDA-MB-361; 20 µM
  mass response: 2.2 ± 2.3
MDA-MB-361; 50 µM
  mass response: 4.96 ± 1.6
MDA-MB-361; 0.0001 M
  mass response: 19.4 ± 2.7

## C[C@@H](Oc1cc(-c2cnn(C3CCNCC3)c2)cnc1N)c1c(Cl)ccc(F)c1Cl [Crizotinib]
A549; 0.01 µM
  mass response: -1.1 ± 0.55
A549; 0.1 µM
  mass response: -1.44 ± 0.16
A549; 1 µM
  mass response: 6.6 ± 1.6
A549; 10 µM
  mass response: 12.1 ± 0.61

## CCc1c2c(nc3ccc(O)cc13)-c1cc3c(c(=O)n1C2)COC(=O)[C@]3(O)CC [SN-38]
HT-29; 0.01 µM
  mass response: 15.5 ± 0.51
HT-29; 0.1 µM
  mass response: 11.1 ± 2.3
HT-29; 1 µM
  mass response: 10.6 ± 0.61
HT-29; 10 µM
  mass response: 18 ± 3

## Nc1ccn([C@@H]2O[C@H](CO)[C@@H](O)C2(F)F)c(=O)n1 [Gemcitabine]
PA-TU-8902; 0.002 µM
  mass response: 11.2 ± 4.4
PA-TU-8902; 0.02 µM
  mass response: 7.94 ± 0.91
PA-TU-8902; 0.2 µM
  mass response: 5.91 ± 0.96
PA-TU-8902; 2 µM
  mass response: 15.9 ± 3

## CC(=O)Nc1cccc(-n2c(=O)n(C3CC3)c(=O)c3c(Nc4ccc(I)cc4F)n(C)c(=O)c(C)c32)c1 [Trametinib]
HT-29; 0.01 µM
  mass response: 26.9 ± 6.7
HT-29; 0.1 µM
  mass response: 27.1 ± 3.4
HT-29; 1 µM
  mass response: 23.5 ± 0.46
HT-29; 10 µM
  mass response: 24.4 ± 0.46

## COc1cccc2c1C(=O)c1c(O)c3c(c(O)c1C2=O)C[C@@](O)(C(=O)CO)C[C@@H]3O[C@H]1C[C@H](N)[C@@H](O)[C@H](C)O1 [Epirubicin]
MDA-MB-361; 0.15 µM
  mass response: 10.2 ± 1.1
MDA-MB-361; 0.625 µM
  mass response: 10.7 ± 0.92
MDA-MB-361; 2.5 µM
  mass response: 8.33 ± 2.5
MDA-MB-361; 10 µM
  mass response: 13.1 ± 3.1

## CS(=O)(=O)CCNCc1ccc(-c2ccc3ncnc(Nc4ccc(OCc5cccc(F)c5)c(Cl)c4)c3c2)o1 [Lapatinib]
MDA-MB-361; 0.1 µM
  mass response: 0.147 ± 0.5
MDA-MB-361; 1 µM
  mass response: 6.42 ± 1.7
MDA-MB-361; 10 µM
  mass response: 19.6 ± 1.1
MDA-MB-361; 0.0001 M
  mass response: 19.5 ± 2.4

## COc1cc2nccc(Oc3ccc(NC(=O)C4(C(=O)Nc5ccc(F)cc5)CC4)cc3)c2cc1OC [Cabozantinib]
H2228; 0.01 µM
  mass response: 0.815 ± 0.96
H2228; 0.1 µM
  mass response: 1.67 ± 0.69
H2228; 1 µM
  mass response: -1.71 ± 0.46
H2228; 10 µM
  mass response: 15.5 ± 1

## Nc1ccn([C@@H]2O[C@H](CO)[C@@H](O)[C@@H]2O)c(=O)n1 [Cytarabine]
MV-4-11; 0.001 µM
  mass response: -1.03 ± 0.38
MV-4-11; 0.01 µM
  mass response: 2.01 ± 0.69
MV-4-11; 0.1 µM
  mass response: 15 ± 1.3
MV-4-11; 1 µM
  mass response: 22.9 ± 0.31
